Assay results: ChEMBL document CHEMBL5291721, “A preclinical secondary pharmacology resource illuminates target-adverse drug reaction associations of marketed drugs” (Nat Commun, 2023)

Key:
[1] = molecular target: T1, Alpha-1A adrenergic receptor (Homo sapiens, UniProt P35348); type: functional, cell-based
T1 sequence (P35348 whole entry): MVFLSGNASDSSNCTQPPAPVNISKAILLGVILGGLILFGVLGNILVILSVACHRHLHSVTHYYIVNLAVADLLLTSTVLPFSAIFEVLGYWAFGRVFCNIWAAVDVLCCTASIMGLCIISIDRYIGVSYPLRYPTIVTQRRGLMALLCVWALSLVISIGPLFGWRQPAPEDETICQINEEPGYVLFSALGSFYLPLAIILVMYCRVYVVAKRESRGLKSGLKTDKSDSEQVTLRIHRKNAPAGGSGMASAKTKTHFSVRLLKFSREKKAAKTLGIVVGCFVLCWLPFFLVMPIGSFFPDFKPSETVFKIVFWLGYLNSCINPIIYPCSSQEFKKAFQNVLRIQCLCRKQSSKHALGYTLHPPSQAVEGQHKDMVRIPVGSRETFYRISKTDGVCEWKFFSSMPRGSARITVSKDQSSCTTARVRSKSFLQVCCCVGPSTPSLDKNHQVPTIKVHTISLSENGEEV

Adenosine receptor A3 = molecular target: T2, Adenosine receptor A3 (Homo sapiens, UniProt P0DMS8)
T2 sequence (P0DMS8 whole entry): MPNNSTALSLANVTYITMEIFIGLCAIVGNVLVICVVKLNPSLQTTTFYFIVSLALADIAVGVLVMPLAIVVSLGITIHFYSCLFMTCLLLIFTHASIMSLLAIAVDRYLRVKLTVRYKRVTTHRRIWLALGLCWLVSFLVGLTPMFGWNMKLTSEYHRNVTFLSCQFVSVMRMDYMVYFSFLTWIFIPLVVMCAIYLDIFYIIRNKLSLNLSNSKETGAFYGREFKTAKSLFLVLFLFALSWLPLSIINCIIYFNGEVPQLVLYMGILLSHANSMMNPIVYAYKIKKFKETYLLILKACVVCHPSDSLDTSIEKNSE

Thromboxane A2 receptor [2] = molecular target: T3, Thromboxane A2 receptor (Homo sapiens, UniProt P21731); type: functional, cell-based
T3 sequence (P21731 whole entry): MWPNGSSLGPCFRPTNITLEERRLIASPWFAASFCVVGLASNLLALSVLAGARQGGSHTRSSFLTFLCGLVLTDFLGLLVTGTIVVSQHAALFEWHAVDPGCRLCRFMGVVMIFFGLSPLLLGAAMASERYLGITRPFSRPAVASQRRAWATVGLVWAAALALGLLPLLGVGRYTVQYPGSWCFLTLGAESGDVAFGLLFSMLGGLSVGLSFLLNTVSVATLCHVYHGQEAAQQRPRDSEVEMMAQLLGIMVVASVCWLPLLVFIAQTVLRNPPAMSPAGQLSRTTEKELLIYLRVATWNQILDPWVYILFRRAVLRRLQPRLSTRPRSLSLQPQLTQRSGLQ

[3] = molecular target: 3',5'-cyclic-AMP phosphodiesterase 4A (Homo sapiens, UniProt P27815); type: functional
Thromboxane A2 receptor [4] = molecular target: T3, Thromboxane A2 receptor; type: functional, cell-based; remark: listed apart in the source
Progesterone receptor = molecular target: T4, Progesterone receptor (Homo sapiens, UniProt P06401)
T4 sequence (P06401 whole entry): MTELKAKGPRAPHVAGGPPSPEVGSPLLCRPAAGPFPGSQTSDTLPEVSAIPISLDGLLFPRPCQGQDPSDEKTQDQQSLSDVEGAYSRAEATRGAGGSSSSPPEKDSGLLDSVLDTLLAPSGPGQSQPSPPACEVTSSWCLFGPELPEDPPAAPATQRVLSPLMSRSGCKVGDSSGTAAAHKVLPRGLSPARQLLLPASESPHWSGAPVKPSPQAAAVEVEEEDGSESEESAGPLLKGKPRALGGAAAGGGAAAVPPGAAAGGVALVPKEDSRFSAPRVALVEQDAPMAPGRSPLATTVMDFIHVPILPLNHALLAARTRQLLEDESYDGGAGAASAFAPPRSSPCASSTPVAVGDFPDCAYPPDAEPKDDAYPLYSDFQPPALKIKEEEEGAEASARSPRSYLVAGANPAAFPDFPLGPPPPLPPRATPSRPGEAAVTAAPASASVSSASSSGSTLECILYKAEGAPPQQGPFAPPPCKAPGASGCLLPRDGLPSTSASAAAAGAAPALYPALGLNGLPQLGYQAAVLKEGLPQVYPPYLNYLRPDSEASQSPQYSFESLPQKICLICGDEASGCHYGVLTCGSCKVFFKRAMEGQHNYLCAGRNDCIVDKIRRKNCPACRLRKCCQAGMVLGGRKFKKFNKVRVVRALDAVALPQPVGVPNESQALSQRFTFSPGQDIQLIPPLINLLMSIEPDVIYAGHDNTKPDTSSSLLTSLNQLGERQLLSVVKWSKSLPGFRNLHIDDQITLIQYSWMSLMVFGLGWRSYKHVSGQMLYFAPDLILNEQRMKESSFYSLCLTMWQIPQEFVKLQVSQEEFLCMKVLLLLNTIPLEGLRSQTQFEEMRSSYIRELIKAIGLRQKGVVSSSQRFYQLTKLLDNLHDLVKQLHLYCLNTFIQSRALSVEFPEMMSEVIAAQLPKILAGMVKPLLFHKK

[5] = molecular target: T1, Alpha-1A adrenergic receptor; type: functional, cell-based; remark: listed apart in the source
[6] = molecular target: Sodium-dependent dopamine transporter (Homo sapiens, UniProt Q01959)
[7] = molecular target: Prostaglandin G/H synthase 1 (Homo sapiens, UniProt P23219); type: functional
Acetylcholinesterase = Acetylcholinesterase (Homo sapiens, UniProt P22303); type: functional
[8] = molecular target: Sodium-dependent noradrenaline transporter (Homo sapiens, UniProt P23975)
D(3) dopamine receptor = D(3) dopamine receptor (Homo sapiens, UniProt P35462)

Measured: AC50
Also: assay procedure not described here.

Sodium-dependent dopamine transporter, sequence (Q01959 whole entry): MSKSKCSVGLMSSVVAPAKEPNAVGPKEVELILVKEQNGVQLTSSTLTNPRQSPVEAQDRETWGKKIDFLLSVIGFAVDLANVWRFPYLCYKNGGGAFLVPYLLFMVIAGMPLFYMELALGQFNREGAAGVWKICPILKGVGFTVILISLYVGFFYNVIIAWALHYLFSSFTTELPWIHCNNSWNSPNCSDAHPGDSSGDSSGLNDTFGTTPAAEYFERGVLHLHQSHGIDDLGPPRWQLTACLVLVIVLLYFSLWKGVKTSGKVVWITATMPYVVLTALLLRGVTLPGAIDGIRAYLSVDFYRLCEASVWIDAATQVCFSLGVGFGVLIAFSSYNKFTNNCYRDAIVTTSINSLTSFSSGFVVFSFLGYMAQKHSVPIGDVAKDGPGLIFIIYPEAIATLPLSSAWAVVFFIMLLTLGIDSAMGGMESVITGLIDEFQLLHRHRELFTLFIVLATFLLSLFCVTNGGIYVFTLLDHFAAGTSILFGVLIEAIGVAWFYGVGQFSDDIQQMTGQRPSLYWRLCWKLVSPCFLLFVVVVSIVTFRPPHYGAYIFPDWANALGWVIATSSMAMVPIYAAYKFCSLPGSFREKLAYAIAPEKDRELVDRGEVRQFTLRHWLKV
Acetylcholinesterase, sequence (P22303 whole entry): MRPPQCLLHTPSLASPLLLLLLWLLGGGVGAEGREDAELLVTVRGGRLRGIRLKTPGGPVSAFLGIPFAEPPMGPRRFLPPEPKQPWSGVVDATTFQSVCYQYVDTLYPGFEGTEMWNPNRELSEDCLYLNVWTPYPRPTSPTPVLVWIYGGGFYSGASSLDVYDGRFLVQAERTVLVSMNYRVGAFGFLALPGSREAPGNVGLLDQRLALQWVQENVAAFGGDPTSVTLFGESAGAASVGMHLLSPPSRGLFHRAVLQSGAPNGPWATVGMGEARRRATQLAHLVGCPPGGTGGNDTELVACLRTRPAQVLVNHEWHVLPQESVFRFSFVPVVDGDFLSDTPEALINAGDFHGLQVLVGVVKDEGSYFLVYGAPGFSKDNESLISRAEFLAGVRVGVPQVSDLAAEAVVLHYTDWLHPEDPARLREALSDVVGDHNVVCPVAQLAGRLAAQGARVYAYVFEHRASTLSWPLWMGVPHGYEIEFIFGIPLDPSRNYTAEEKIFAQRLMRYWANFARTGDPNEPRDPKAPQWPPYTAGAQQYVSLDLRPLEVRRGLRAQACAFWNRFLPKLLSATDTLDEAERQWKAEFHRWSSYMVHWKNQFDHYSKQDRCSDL
Sodium-dependent noradrenaline transporter, sequence (P23975 whole entry): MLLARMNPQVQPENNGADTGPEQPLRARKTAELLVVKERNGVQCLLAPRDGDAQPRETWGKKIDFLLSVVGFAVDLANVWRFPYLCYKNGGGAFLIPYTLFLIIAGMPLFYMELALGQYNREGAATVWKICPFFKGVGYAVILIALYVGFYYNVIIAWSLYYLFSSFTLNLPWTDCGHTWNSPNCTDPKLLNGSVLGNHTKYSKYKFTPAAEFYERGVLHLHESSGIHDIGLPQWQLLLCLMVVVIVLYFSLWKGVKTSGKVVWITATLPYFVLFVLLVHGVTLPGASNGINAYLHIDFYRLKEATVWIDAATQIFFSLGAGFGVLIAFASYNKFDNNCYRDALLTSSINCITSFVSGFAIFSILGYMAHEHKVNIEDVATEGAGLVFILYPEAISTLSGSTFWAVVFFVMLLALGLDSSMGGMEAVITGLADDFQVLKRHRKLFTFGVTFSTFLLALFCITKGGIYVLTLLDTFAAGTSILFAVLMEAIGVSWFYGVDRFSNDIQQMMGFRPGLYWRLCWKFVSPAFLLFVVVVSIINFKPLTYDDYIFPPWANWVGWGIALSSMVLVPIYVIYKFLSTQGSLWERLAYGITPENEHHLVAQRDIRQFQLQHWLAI
D(3) dopamine receptor, sequence (P35462 whole entry): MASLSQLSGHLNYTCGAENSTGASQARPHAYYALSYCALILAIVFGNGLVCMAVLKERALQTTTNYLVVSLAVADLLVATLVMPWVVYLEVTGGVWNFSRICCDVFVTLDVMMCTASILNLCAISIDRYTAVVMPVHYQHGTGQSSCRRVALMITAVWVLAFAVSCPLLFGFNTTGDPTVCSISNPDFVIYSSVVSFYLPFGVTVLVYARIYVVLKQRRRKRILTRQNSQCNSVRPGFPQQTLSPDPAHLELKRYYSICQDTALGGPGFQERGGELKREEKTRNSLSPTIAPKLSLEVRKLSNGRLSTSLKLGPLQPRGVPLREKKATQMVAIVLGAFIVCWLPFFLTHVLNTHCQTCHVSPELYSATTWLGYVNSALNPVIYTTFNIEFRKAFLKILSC
3',5'-cyclic-AMP phosphodiesterase 4A, sequence (P27815 whole entry): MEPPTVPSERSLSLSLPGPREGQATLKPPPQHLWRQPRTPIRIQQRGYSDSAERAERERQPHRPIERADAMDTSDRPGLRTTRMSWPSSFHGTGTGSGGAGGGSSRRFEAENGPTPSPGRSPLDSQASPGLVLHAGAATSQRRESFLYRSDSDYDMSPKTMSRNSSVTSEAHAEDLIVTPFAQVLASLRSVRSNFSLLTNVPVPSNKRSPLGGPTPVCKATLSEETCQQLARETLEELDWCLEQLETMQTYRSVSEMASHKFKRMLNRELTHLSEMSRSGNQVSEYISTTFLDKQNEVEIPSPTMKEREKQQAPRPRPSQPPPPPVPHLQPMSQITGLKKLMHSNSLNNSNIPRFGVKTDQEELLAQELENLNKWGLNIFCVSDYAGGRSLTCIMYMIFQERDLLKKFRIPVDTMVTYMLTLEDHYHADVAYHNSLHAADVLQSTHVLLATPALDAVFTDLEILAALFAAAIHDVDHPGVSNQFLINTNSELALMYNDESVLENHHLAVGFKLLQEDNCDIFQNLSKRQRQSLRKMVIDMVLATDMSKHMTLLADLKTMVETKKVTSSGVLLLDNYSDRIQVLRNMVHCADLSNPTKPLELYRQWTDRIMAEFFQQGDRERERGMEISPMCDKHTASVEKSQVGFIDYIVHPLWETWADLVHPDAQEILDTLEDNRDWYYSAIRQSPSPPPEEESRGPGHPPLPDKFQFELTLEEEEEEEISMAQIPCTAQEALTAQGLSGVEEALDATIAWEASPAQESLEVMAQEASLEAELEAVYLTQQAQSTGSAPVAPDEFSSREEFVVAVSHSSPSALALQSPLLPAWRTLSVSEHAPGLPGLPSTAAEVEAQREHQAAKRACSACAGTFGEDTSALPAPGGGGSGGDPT
Prostaglandin G/H synthase 1, sequence (P23219 whole entry): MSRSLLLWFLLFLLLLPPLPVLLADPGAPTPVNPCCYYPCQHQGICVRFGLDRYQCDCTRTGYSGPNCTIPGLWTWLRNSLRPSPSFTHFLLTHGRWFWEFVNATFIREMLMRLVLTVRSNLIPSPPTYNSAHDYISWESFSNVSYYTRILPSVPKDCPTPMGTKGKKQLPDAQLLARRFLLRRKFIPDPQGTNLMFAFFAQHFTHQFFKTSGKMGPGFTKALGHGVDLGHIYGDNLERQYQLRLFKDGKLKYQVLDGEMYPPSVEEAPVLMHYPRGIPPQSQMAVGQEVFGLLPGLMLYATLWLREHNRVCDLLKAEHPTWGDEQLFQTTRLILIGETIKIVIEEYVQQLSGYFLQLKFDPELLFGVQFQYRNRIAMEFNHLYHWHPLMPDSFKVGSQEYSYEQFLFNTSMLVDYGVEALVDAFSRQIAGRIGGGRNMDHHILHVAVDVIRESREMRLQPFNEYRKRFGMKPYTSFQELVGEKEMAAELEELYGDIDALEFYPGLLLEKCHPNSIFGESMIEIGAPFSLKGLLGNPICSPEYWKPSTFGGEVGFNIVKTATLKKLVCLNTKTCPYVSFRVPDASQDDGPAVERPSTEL

O=C(O)c1cccc(-c2noc(-c3ccccc3F)n2)c1
> 30 µM: [1] | Adenosine receptor A3 | Thromboxane A2 receptor [2] | [3] | Thromboxane A2 receptor [4] | Progesterone receptor | [5] | [6] | [7] | Acetylcholinesterase | [8] | D(3) dopamine receptor

Cc1c(O)cccc1C(=O)N[C@@H](CSc1ccccc1)[C@H](O)CN1C[C@H]2CCCC[C@H]2C[C@H]1C(=O)NC(C)(C)C
2.84 µM: Adenosine receptor A3
18.2 µM: [8]
23.1 µM: [6]
13.2 µM: Thromboxane A2 receptor [2]
> 30 µM: [1] | [3] | Thromboxane A2 receptor [4] | Progesterone receptor | [5] | [7] | Acetylcholinesterase | D(3) dopamine receptor

Nc1ccc(C(=O)O)cc1 [AMINOBENZOIC ACID]
4.69 µM: [7]
> 30 µM: [1] | Adenosine receptor A3 | Thromboxane A2 receptor [2] | [3] | Thromboxane A2 receptor [4] | Progesterone receptor | [5] | [6] | Acetylcholinesterase | [8] | D(3) dopamine receptor

CCCC1C(=O)N2C(N(C)C)=Nc3ccc(C)cc3N2C1=O (configuration not stated) [APAZONE]
8.41 µM: [7]
> 30 µM: [1] | Thromboxane A2 receptor [2] | [3] | Thromboxane A2 receptor [4] | Progesterone receptor | [5] | [6] | Acetylcholinesterase | [8] | D(3) dopamine receptor
3.84 µM: Adenosine receptor A3

O=C1CN=C(c2ccccc2)c2c(sc3c2CCCC3)N1 [BENTAZEPAM]
14.8 µM: Progesterone receptor
> 30 µM: [1] | Thromboxane A2 receptor [2] | Thromboxane A2 receptor [4] | [6] | [7] | Acetylcholinesterase | [8] | D(3) dopamine receptor
15.7 µM: [3]
12.4 µM: [5]
14.3 µM: Adenosine receptor A3

O=C(O)CCCN1CCC(O[C@@H](c2ccc(Cl)cc2)c2ccccn2)CC1 [BEPOTASTINE]
> 30 µM: [1] | Adenosine receptor A3 | Thromboxane A2 receptor [2] | [3] | Thromboxane A2 receptor [4] | Progesterone receptor | [5] | [6] | [7] | Acetylcholinesterase | [8] | D(3) dopamine receptor

CN(Cc1cc(Br)cc(Br)c1N)C1CCCCC1 [BROMHEXINE]
22 µM: [8]
27.9 µM: Adenosine receptor A3
12.3 µM: [6]
26.3 µM: [3]
> 30 µM: [1] | Thromboxane A2 receptor [2] | Thromboxane A2 receptor [4] | Progesterone receptor | [5] | [7] | Acetylcholinesterase | D(3) dopamine receptor

CCCCN(CCCC)CCCOC(=O)c1ccc(N)cc1 [BUTACAINE]
2 µM: [6]
> 30 µM: [1] | Adenosine receptor A3 | Thromboxane A2 receptor [2] | [3] | Thromboxane A2 receptor [4] | [5] | [7] | Acetylcholinesterase | [8]
5.52 µM: D(3) dopamine receptor

CCCC[N+]1(C)[C@@H]2C[C@@H](OC(=O)[C@H](CO)c3ccccc3)C[C@H]1[C@@H]1O[C@@H]12 (some centres not stated) [BUTYLSCOPOLAMINE]
> 30 µM: [1] | Adenosine receptor A3 | Thromboxane A2 receptor [2] | [3] | Thromboxane A2 receptor [4] | Progesterone receptor | [5] | [6] | [7] | Acetylcholinesterase | [8] | D(3) dopamine receptor

O=C(c1ccc(F)c(F)c1Nc1ccc(I)cc1F)N1CC(O)([C@@H]2CCCCN2)C1 [COBIMETINIB]
> 3 µM: Thromboxane A2 receptor [2]
17.6 µM: Thromboxane A2 receptor [4]
24.1 µM: D(3) dopamine receptor
> 30 µM: [1] | Adenosine receptor A3 | [3] | Progesterone receptor | [7] | Acetylcholinesterase
13.6 µM: [5]
16.9 µM: [8]
7.3 µM: [6]

CN1CCN(C(c2ccccc2)c2ccccc2)CC1 [CYCLIZINE]
9.64 µM: Adenosine receptor A3
> 30 µM: [1] | Thromboxane A2 receptor [2] | [3] | Thromboxane A2 receptor [4] | Progesterone receptor | [5] | [7] | Acetylcholinesterase | [8]
1.98 µM: [6]
2.21 µM: D(3) dopamine receptor

NS(=O)(=O)c1cc2c(cc1Cl)NC(C1CC3C=CC1C3)NS2(=O)=O (configuration not stated) [CYCLOTHIAZIDE]
> 30 µM: [1] | Adenosine receptor A3 | Thromboxane A2 receptor [2] | [3] | Thromboxane A2 receptor [4] | Progesterone receptor | [5] | [6] | [7] | Acetylcholinesterase | [8]

Nc1nc(-n2cc(C(=O)O)c(=O)c3cc(F)c(N4CC(O)C4)c(Cl)c32)c(F)cc1F [DELAFLOXACIN]
> 3 µM: Adenosine receptor A3
> 30 µM: [1] | Thromboxane A2 receptor [2] | [3] | Thromboxane A2 receptor [4] | Progesterone receptor | [5] | [6] | [7] | Acetylcholinesterase | [8] | D(3) dopamine receptor

C[C@@H]1C[C@H]2[C@@H]3C[C@H](F)C4=CC(=O)C(Cl)=C[C@]4(C)[C@@]3(F)[C@@H](O)C[C@]2(C)[C@@]1(O)C(=O)CO [HALOMETASONE]
7.72 µM: Progesterone receptor
23.3 µM: [5]
> 30 µM: [1] | Adenosine receptor A3 | [3] | Thromboxane A2 receptor [4] | [6] | [7] | Acetylcholinesterase | [8]
18.6 µM: Thromboxane A2 receptor [2]

CC(=O)OC(C)C[N+](C)(C)C (configuration not stated) [METHACHOLINE]
> 30 µM: [1] | Adenosine receptor A3 | [3] | Progesterone receptor | [5] | [6] | [7] | Acetylcholinesterase | [8] | D(3) dopamine receptor
0.824 µM: Thromboxane A2 receptor [4]

CCC1C(C)=NN=C(c2ccc(OC)c(OC)c2)c2cc(OC)c(OC)cc21 (configuration not stated) [TOFISOPAM]
> 30 µM: [1] | Adenosine receptor A3 | Thromboxane A2 receptor [2] | Thromboxane A2 receptor [4] | Progesterone receptor | [5] | [6] | [7] | Acetylcholinesterase | [8]
0.319 µM: [3]
